In patent US11197908B2, “Peptoids and methods for attenuating inflammatory response” (THE BOARD OF TRUSTEES OF THE UNIVERSITY OF ARKANSAS, priority 2018, dated 2021):
Where a SMILES comes first, the peptide text is derived from it. [ ]: non-standard residue; d: D form. N(1S-Me-propyl)Gly = CC[C@H](C)NCC(=O)O; Nspe = C[C@H](NCC(=O)O)c1ccccc1; Nlys = NCCCCNCC(=O)O

Key:
Assay type in all cases: cell-based, human
IL-6 [1] = assay: IL-6 in supernatant of THP-1 macrophages co-incubated with peptoid and LPS (ELISA); conditions: 3 days, vs LPS alone
Description: (§1) THP-1 monocytes were differentiated into macrophages through exposure to phorbol 12-myristate 13-acetate (PMA) for three days prior to experimentation 10. […] Upon differentiation, these cells were then incubated (3 days) with media containing JPT1a (50, 10, or 2 μM) alone or JPT1a (50, 10, or 2 μM) in the presence of low-dose (2 ng/mL) lipopolysaccharide (LPS) as a chronic pro-inflammatory stimulus 11. Treatment with 2 ng/mL LPS alone served as a positive control, while treatment with an equivalent volume of buffer diluted into media served as the vehicle. Cellular supernatant was harvested on day 3 12; these samples were immediately centrifuged at 1200 rpm for 10 min at 25° C. to remove any cells or debris. The top 80% of this volume was subsequently removed and stored at −80° C. for later assessment of cytokines via ELISA. Cells were fixed and stained for RAGE, phalloidin (cytoplasmic marker), and DAPI (nuclear marker) 13. […] All multi-channel images were converted to TIFF file format via ImageJ64 software for quantitative image analysis using a custom subroutine written in Matlab™ software to obtain the average RAGE expression per volume of cells, and the data generated was assessed for statistical significance using GraphPad Prism 7.0 software 15.
(§2) As shown in FIGS. 2B-2D, THP-1 macrophages were treated with JPT1a alone (white) or in the presence of a chronic low-dose (2 ng/mL) of LPS (grey), for 3 days prior to supernatant harvest and storage. Examination of the supernatant via ELISA determined the concentrations of (FIG. 2B) IL-1β, (FIG. 2C) IL-6, and (FIG. 2D) IL-8. […]
as §2, with “5B-5D,” for “2B-2D,”, “JPT1” for “JPT1a”, “5B)” for “2B)”, “5C)” for “2C)”, “5D)” for “2D)”

IL-6 [2] = assay: IL-6 expression in previously LPS-stimulated THP1 macrophages (ELISA); conditions: 25, 5, 1 μM added after 48 h of 2 ng/mL LPS, additional 24 h
Description: THP-1 monocytes were differentiated as described above 20. Upon differentiation, these cells were then incubated (48 h) with media containing low-dose (2 ng/mL) LPS as a chronic pro-inflammatory stimulus 21. Following incubation, JPT1a or JPT1 was added for final concentrations of 25, 5, and 1 μM 22, and cells were incubated an additional 24 h. Treatment with 2 ng/mL LPS alone served as a positive control, while treatment with an equivalent volume of buffer diluted into media served as the vehicle. Media was collected for later assessment of cytokines via ELISA as described above 23. Cells were fixed and stained for RAGE, phalloidin (cytoplasmic marker), and DAPI (nuclear marker) 24. Each channel was imaged with a Zeiss LSM 510 META Confocal Scanning Laser Microscope using a plan-neofluar 40×/1.3 oil DIC immersion objective; three of these multi-channel images were obtained from each slide in each experiment. 25 All multi-channel images were converted to TIFF file format via ImageJ64 software for quantitative image analysis using a custom subroutine written in Matlab™ software to obtain the average RAGE expression per volume of cells, and the data generated was assessed for statistical significance using GraphPad Prism 7.0 software 26.
As shown in FIGS. 4B-4D, THP1 macrophages were treated with low-dose LPS at 2 ng/mL. […]

RAGE = RAGE upregulation in THP-1 macrophages co-incubated with peptoid and low-dose LPS (confocal imaging); conditions: 3 days
Description: THP-1 monocytes were differentiated into macrophages through exposure to phorbol 12-myristate 13-acetate (PMA) for three days prior to experimentation 10. […] Upon differentiation, these cells were then incubated (3 days) with media containing JPT1a (50, 10, or 2 μM) alone or JPT1a (50, 10, or 2 μM) in the presence of low-dose (2 ng/mL) lipopolysaccharide (LPS) as a chronic pro-inflammatory stimulus 11. Treatment with 2 ng/mL LPS alone served as a positive control, while treatment with an equivalent volume of buffer diluted into media served as the vehicle. Cellular supernatant was harvested on day 3 12; these samples were immediately centrifuged at 1200 rpm for 10 min at 25° C. to remove any cells or debris. The top 80% of this volume was subsequently removed and stored at −80° C. for later assessment of cytokines via ELISA. Cells were fixed and stained for RAGE, phalloidin (cytoplasmic marker), and DAPI (nuclear marker) 13. Each channel was imaged with a Zeiss LSM 510 META Confocal Scanning Laser Microscope using a plan-neofluar 40×/1.3 oil DIC immersion objective; three of these multi-channel images were obtained from each slide in each experiment 14. All multi-channel images were converted to TIFF file format via ImageJ64 software for quantitative image analysis using a custom subroutine written in Matlab™ software to obtain the average RAGE expression per volume of cells, and the data generated was assessed for statistical significance using GraphPad Prism 7.0 software 15.
(§3) Images acquired via confocal microscopy were analyzed via custom MATLAB™ subroutine to determine the average quantity of RAGE present within a given volume of cells. Results within each experiment are normalized to the positive control (2 ng/mL LPS alone), indicated by the dashed line at 1. Significance relative to positive control is indicated as ** p<0.01. Error bars indicate SEM, n=4.
as §3, with “1.0.” for “1. Significance relative to positive control is indicated as ** p<0.01.”, “n=2.” for “n=4.”

IL-1β = IL-1β in supernatant of THP-1 macrophages co-incubated with peptoid and LPS (ELISA); conditions: peptoid 50 μM with 2 ng/mL LPS, 3 days; vs LPS alone
Description: as §1, with “debris.” for “debris. The top 80% of this volume was subsequently removed and stored at −80° C. for later assessment of cytokines via ELISA. Cells were fixed and stained for RAGE, phalloidin (cytoplasmic marker), and DAPI (nuclear marker) 13.”
as §2

CC[C@H](C)N(CC(=O)N(CC(=O)N(CC(=O)N(CC(=O)N(CC(=O)N(CC(=O)N(CC(N)=O)[C@@H](C)c1ccccc1)[C@@H](C)c1ccccc1)[C@@H](C)CC)[C@@H](C)c1ccccc1)[C@@H](C)c1ccccc1)[C@@H](C)CC)C(=O)CNCCCCN [JPT1a] (H-[Nlys][N(1S-Me-propyl)Gly][N(1S-Me-propyl)Gly][Nspe][Nspe][N(1S-Me-propyl)Gly][Nspe][Nspe]-NH2)
levels of LPS-induced IL-6 (IL-6 [1]; peptoid 10 μM with 2 ng/mL LPS): significantly reduces
LPS-induced production of IL-6 (IL-6 [1]; peptoid 50 μM with 2 ng/mL LPS): significantly attenuates
IL-6 production of previously stimulated macrophages (IL-6 [2]): does not affect cytokine production
upregulation in RAGE expression in the presence of LPS (RAGE; peptoid 50, 10 or 2 μM with 2 ng/mL LPS, normalized to LPS alone): reduced in a dose-dependent and significant manner
expression of RAGE, peptoid alone (RAGE; peptoid alone (no LPS), relative to the control): does not provoke significant response or upregulation
LPS-induced production of IL-1β (IL-1β): significantly attenuates
